# Experiments:
# [1] = system: high-cholesterol diet-fed CD-1 mice; test: Hypolipidemic activity in high-cholesterol diet-fed CD-1 mice; type: in vivo; details: 16 days
# Procedure: High-Cholesterol Diet-Fed CD-1 Mice
# ST2518, fenofibrate, rosiglitazone and pioglitazone (PPARγ agonists) were administered by gavage, for 16 days, to CD-1 mice fed with high-cholesterol diet, and plasma parameters were evaluated in post-absorptive state.
# [2] = system: standard diet-fed c57bl/6j mice; test: Hypolipidemic activity in standard diet-fed c57bl/6j mice; type: in vivo; details: for Triglycerides (plasma): 15 days, post-absorptive state, control 53.8 ± 4.2
# Procedure: Standard Diet-Fed c57bl/6j Mice
# ST2518 was evaluated in comparison with fenofibrate also in c57b1/6j mice fed with standard diet (Table 5).
# hAPO A I transgenic mice = test: Plasma lipid parameters in hAPO A I transgenic mice; type: in vivo; details: 16 days
# Procedure: ST2518, fenofibrate and rosiglitazone were administered by gavage for 16 days, and plasma (p) parameters were evaluated in post-absorptive state.
# db/db mice = test: Increase in HDL-cholesterol levels in db/db mice; type: in vivo; details: further experiment, oral twice daily 14 days, dose equimolar to 25 mg/kg of ST2195, 8 hours after last treatment
# Procedure: Increase in HDL-Cholesterol Levels in db/db Mice
# In this experiment db/db mice were used in which PPARα expression is above normal (Memon et al., Endocrinology 2000, 4021-4031) and HDL-cholesterol levels are substantially elevated (Silver et al., J Biol Chem 1999, 274: 4140-4146).
# The C57BL[KsJ db/db mice were acclimatised for one week in standard conditions (22±2° C.; 55±15% humidity; 15-20 air changes/hour; 12 hours light/darkness cycle with light from 7.00 a.m. to 7 p.m.) with a standard 4 RF21 diet (Mucedola). Blood samples were taken in post-absorption conditions (fasting from 8.30 a.m. to 4.30 p.m.) from the caudal vein with the aid of a Jelco 22G catheter (Johnson and Johnson). Glucose, insulin, triglyceride, cholesterol, free fatty acid and urea levels were checked in plasma for a homogeneous distribution of the mice in the treatment groups.
# At the beginning of treatment the animals' body weight was checked and arrangements were made to monitor their water and feed consumption. […]
# The compound tested, obtained as described in example 4 (ST 1929) was administered at the dose of 24 mg/kg in 10 ml/kg of vehicle (1% CMC containing Tween 80 0.5% in deionized H2O).
# The other compounds tested were also administered at a dose equivalent to that in example 4.
# Ciprofibrate, a known PPARα agonist (Varanasi et al., J Biol Chem 1996, 271: 2147-2155; Latruffe et al. Cell Biochem Biophys 2000, 32 Spring: 213-220) was administered at the dose of 20 mg/kg (Dwivedi et al., Toxicol Pathol 1989, 17: 16-26; Qi et al., Proc Natl Acad Sci USA 1999, 96: 1585-1590).
# The animals were sacrificed (by decapitation) in conditions of post-absorption (fasting from 9.30 a.m. to 4.30 p.m.) 7 hours after the last treatment. The levels of a number of important lipid and carbohydrate metabolism parameters were determined in the serum.
# The HDL-cholesterol levels were measured by treating the serum with phosphotungstic-acid-based precipitating reagent (ABX Diagnostics) which removes the chylomicrons, very low density and low density lipoproteins and determining the HDL-cholesterol levels in the supernatant with the aid of the Cholesterol Kit (ABX Diagnostics) and the Cobas Mira S Autoanalyzer (Roche).
# In a further experiment, where the above reported ST2195 was used as reference compound, db/db mice were treated orally twice daily (8.30 a.m. and 6.30 p.m.) for 14 days with the test items (equimolar to 25 mg/kg of ST2 195) giving the following results reported in Table 3: […]
smiles,measurement,setting,value
"CC(C)(Sc1cccc(OCCc2ccc(Cl)cc2)c1)C(=O)O [ST2518, 2-[3-[2-(4-chlorophenyl)ethoxy]phenylthio]-2-methylpropanoic acid]",P-Cholesterol,"[1]; 25 mg/Kg/bid by gavage, post-absorptive state, control 350 ± 28",200 ± 29 Δ mg/dL
same,effect on plasma-cholesterol and triglyceride levels (in words),"[1]; gavage, high-cholesterol diet",significantly reduced plasma-cholesterol and triglyceride levels
same,Triglycerides (plasma),[2]; 5 mg/kg/bid by gavage,29.4 ± 3.0 Δ mg/dl
same,Triglycerides (plasma),[2]; 15 mg/kg/bid by gavage,29.5 ± 3.4 Δ mg/dl
same,Triglycerides (plasma),[2]; 25 mg/kg/bid by gavage,24.6 ± 2.0 Δ mg/dl
same,effect on plasma triglyceride levels (in words),"[2]; treatment for 15 days, standard diet",significantly reduced plasma triglyceride levels to a higher extent than fenofibrate and muraglitazar
same,melting point,,105 to 106 °C
same,P-triglycerides,"hAPO A I transgenic mice; 25 mg/kg/bid by gavage, post-absorptive state, control 75 ± 6",36 ± 3 δ mg/dl
same,P-hdl-cholesterol,"hAPO A I transgenic mice; 25 mg/kg/bid by gavage, post-absorptive state, control 163 ± 6",252 ± 18 δ mg/dl
same,effect on HDL-cholesterol (in words),hAPO A I transgenic mice; gavage,increased HDL-cholesterol more than fenofibrate
same,effect on triglyceride levels (in words),hAPO A I transgenic mice; gavage,effective in reducing triglyceride levels
same,Increase in HDL-cholesterol levels (%),db/db mice,+46Δ %

# — patent US20080027098A1, “Derivatives of alpha-phenylthiocarboxylic and alpha-phenyloxy-carboxylic acids useful for the treatment of diseases responding to PPARalpha activation” (SIGMA-TAU INDUSTRIE FARMACEUTICHE RIUNITE S.p.A., priority 2002, published 2008)
